# Measured values as given in patent US20100247629A1, “Method for drug loading in liposomes” (Yissum Research Development Company of the Hebrew …, priority 2003, published 2010).
# Experiments:
# [1] = system: C26; experiment: In vitro cytotoxicity (growth inhibition, methylene blue); assay type: cell-based, human; settings: continuous exposure 72 hours
# Method: (§1) M109-R and KB-V cell lines are doxorubicin-resistant sublines of M109-S and KB, respectively. The cells were exposed continuously to the drug formulation for 72 hours following the experimental details described by Horowitz, et al., Biochimica et Biophysica Acta, 1109:203-209 (1992) and also in Example 2.
# (§2) Cells for each line were exposed continuously to drug for 72 hours. Other experimental details were as described by Horowitz et al., Biochem Biophys Acta, 1109(2):203 (1992). Briefly, 5×10^3 cells from exponentially growing cultures in 200 μL aliquots were plated onto 96-well flat-bottom microtiter plates. […] For each 10-fold increase in drug concentration, six drug concentration points were tested. Each test was performed in triplicate wells and in two parallel plates. The cells were treated continuously for 72 hours. The cultures were fixed by the addition of 50 μL 2.5% glutaraldehyde to each well for 10 minutes. The plates were washed three times with de-ionized water, once with 0.1 M borate buffer (pH 8.5) and then stained for 60 minutes with 100 μL methylene blue (1% in 0.1 M buffer borate, pH 8.5) at room temperature. The plates were rinsed in five baths of de-ionized water to remove non-cell bound dye and were then dried. The dye was extracted with 200 μL 0.1 M HCl for 60 min at 37° C. and the optical density was determined using a microplate spectrophotometer.
# (§3) The growth rate was calculated by dividing the doubling times of drug-treated cells with those of the control cells.
# [2] = system: KB-V; experiment: as above; assay type: cell-based, human; settings: KB-V (doxorubicin-resistant); continuous exposure 72 hours
# Method: as §1, §2, §3
# [3] = system: KB; experiment: as above; assay type: cell-based, human; settings: continuous exposure 72 hours
# Method: as §1, §2, §3
# [4] = system: C-26 cells; experiment: In vivo therapeutic activity, C-26 tumor survival; set-up: species or system mice; settings: C-26 tumor i.p., 10 mg/kg i.v. five days after inoculation
# Source text: Untreated (control) mice died quickly with a median survival of 13 days (not shown).
# In another study, mice were inoculated i.p. with C-26 cells (10^6 cells).
# [5] = Solubility and precipitation of doxorubicin in ammonium salt solutions; assay type: physicochemical
# Method: The higher release rate is a result of using glucuronate as the balancing anion. […] In addition, doxorubicin precipitates at less than 2 mM concentration in the presence of sulfate ions, while a much higher concentration of doxorubicin is required for precipitation to occur in the presence of glucuronate ions. Accordingly, when glucuronate is the balancing anion, more of the therapeutic agent is in a soluble form and therefore it is more available for release from the liposomes. Further, the permeability of glucuronate through the liposomal membranes is very low, possibly due to its low pKa, its bulkiness and/or polarity, making it very efficient for maintaining the ammonium ion gradient for loading of the therapeutic agents.
# [6] = system: KB-V; experiment: In vitro uptake of doxorubicin into tumor cells; assay type: cell-based, human
# Method: (§4) There is a greater drug accumulation in cells treated with lipo-dox-AG than in those treated with lipo-dox-AS.
# (§5) Cellular accumulation of doxorubicin was assayed by a method similar to that described in Chambers, S. K. et al., Cancer Res., 49:6275-6279 (1989). […] At the end of the incubation, the cells were rinsed three times with PBS and the drug was extracted from the cells with 1 mL acidified isopropanol (0.075 M HCl in 90% isopropanol), for 20 hours at 4° C. Doxorubicin concentration was determined spectrofluorometrically using an excitation wavelength of 470 nm and an emission wavelength of 590 nm. The fluorescence intensity emitted was translated into doxorubicin-equivalents based on a doxorubicin standard curve, after readings of untreated background cells were subtracted.
# [7] = system: KB; experiment: In vitro uptake of doxorubicin into tumor cells; assay type: cell-based, human
# Method: as §4, §5
# [8] = system: M109-R; experiment: In vitro uptake of doxorubicin into tumor cells; assay type: cell-based, mouse; settings: 24 exposure
# Method: as §4, §5
# [9] = system: M109-R; experiment: In vitro cytotoxicity (growth inhibition, methylene blue); assay type: cell-based, mouse; settings: M109-R (doxorubicin-resistant); continuous exposure 72 hours
# Method: as §1
# as §2, with “The plates were rinsed in five baths of de-ionized water to remove non-cell bound dye and were then dried.” left out
# as §3
# [10] = system: M109-S; experiment: as above; assay type: cell-based, mouse; settings: continuous exposure 72 hours
# Method: as §1
# as §2, with “The plates were rinsed in five baths of de-ionized water to remove non-cell bound dye and were then dried.” left out
# as §3
smiles,measurement,setting,value
"COc1cccc2c1C(=O)c1c(O)c3c(c(O)c1C2=O)C[C@@](O)(C(=O)CO)C[C@@H]3O[C@H]1C[C@H](N)[C@H](O)[C@H](C)O1 [free doxorubicin, doxorubicin]",IC50,[1],960 nM
same,IC50,[2],690 nM
same,IC50,[3],40 nM
same,increase in mean survival time over control,[4],4 days
same,mean survival time,[4],17 days
same,solubility in 250 mM ammonium glucuronate relative to 250 mM ammonium sulfate,[5]; 250 mM AG solution vs 250 mM AS solution,approximately 100 fold
same,concentration at which doxorubicin precipitates,[5]; in the presence of sulfate ions,less than 2 mM
same,Doxorubicin Uptake,[6]; 1 hr exposure,311 (22) ng DOX/10^6 cells
same,Doxorubicin Uptake,[6]; 5 hr exposure,931 (21) ng DOX/10^6 cells
same,Doxorubicin Uptake,[7]; 1 hr exposure,426 (33) ng DOX/10^6 cells
same,Doxorubicin Uptake,[7]; 5 hr exposure,937 (46) ng DOX/10^6 cells
same,Doxorubicin Uptake,[7]; 24 hr exposure,840 (15) ng DOX/10^6 cells
same,Doxorubicin Uptake,[8],80 (3) ng DOX/10^6 cells
same,IC50,[9],2000 nM
same,IC50,[10],560 nM
